Data on 3 molecules can be found in US7781402B2, “Methods and implantable devices for treating supraventricular arrhythmias” (Closed Loop Therapies Ltd., priority 2004, dated 2010).

Each structure is given as a SMILES string.

For one series, the system named is stroke. The conditions noted are these: people with atrial fibrillation; cited from earlier work.
Series [1] has as its system recent-onset atrial fibrillation. The conditions noted are these: phase 3 trial; cited from earlier work.
The next series concerns atrial flutter. Put plainly: Termination of induced atrial flutter in anesthetized Wistar rats (ECG). The conditions noted are these: nine rats, 0.02-0.3 mg/kg via tail vein. The format is in vivo. The text has this: (§1) Induction of atrial tachycardia, atrial fibrillation and atrial flutter in rats—Wistar rats of either sex weighing 450-550 g were used in this study. Rats were anesthetized and atrial tachycardia, atrial fibrillation, or atrial flutter were induced by cardiac stimulation using a programmable stimulator with an isolated constant-current source. Stimuli of rectangular pulses of 2 milliseconds (ms) duration at three times diastolic threshold were delivered via transesophageal bipolar catheter positioned optimally to stimulate the atria. Double and triple extra stimulation techniques or a minimal coupling interval of 10 ms were performed in an attempt to induce atrial arrhythmias. Atrial burst pacing at intervals of 40 to 80 ms was also performed to induce atrial arrhythmias.
(§2) Electrocardiogram (ECG) recording—The surface six-lead ECG was continuously recorded from subcutaneous 25-gauge electrodes in each limb of the animal. The ECG channels were amplified (0.1-0.5 mV/cm) and filtered between 0.5-250 Hz. The ECG variables were calculated according to standard criteria.
(§3) Rapidly hydrolysable cholinergic receptor agonists (RHCA)—The RHCA were injected either through the tail vein or directly into the right ventricular cavity of rats with induced atrial fibrillation, atrial flutter or atrial tachycardia. The RHCA used in the present study was acetylcholine (ACh). […]

For another series, the system named is atrial tachycardia. Put plainly: Termination of induced atrial tachycardia in anesthetized Wistar rats (ECG). The format is in vivo. On the procedure: The effect of rapidly hydrolysable cholinergic receptor agonists (RHCA) on supraventricular arrhythmia was tested in anesthetized Wistar rats, as follows.
as §1, §2, §3

The test system of series [2] is atrial fibrillation. The experiment in a line: Termination of induced atrial fibrillation in anesthetized Wistar rats (ECG). The format is in vivo.
The subject of the next series is arrhythmia induction. Particulars: wild type and M1 cholinergic receptor knockout mice; cited from earlier work.
Series [3] concerns atrial fibrillation. The experiment in a line: Termination of induced atrial fibrillation in anesthetized Wistar rats (ECG). It is filed as in vivo.
Excerpt: as §1, §2
Rapidly hydrolysable cholinergic receptor agonists (RHCA)—The RHCA were injected either through the tail vein or directly into the right ventricular cavity of rats with induced atrial fibrillation, atrial flutter or atrial tachycardia. The RHCA used in the present study was acetylcholine (ACh). ACh was dissolved at a concentration of either 1 mg/ml or 0.1 mg/ml in 0.9% NaCl solution and was injected either to the tail vein at a dosage of 0.2 mg/kg body weight, or to the right ventricle at a dosage of 0.02 mg/kg body weight.
Atrial fibrillation was elicited in rats as described in Example 1, hereinabove.
The source holds these as a separate data set.

[4] abbreviates: 0.02 mg/kg into right ventricular cavity, FIG. 2b.
[5] abbreviates: 0.2 mg/kg via tail vein, FIG. 2a.
The mark [6] stands for this setting: bolus injection into the right ventricular cavity.
Setting [7] is: bolus injection into the tail vein.
The mark [8] stands for this setting: bolus injection 0.04-0.2 mg/kg body weight.
Where [9] appears, read: 0.2 mg/kg through the tail vein, FIG. 5.
Where [10] appears, read: RHCA into right ventricular cavity, n=10, FIG. 4.

On to `CC(=O)CC(c1ccccc1)c1c(O)c2ccccc2oc1=O` (stereo not shown) [Coumadin, warfarin], for which the “reduction of the risk of stroke” value in the series with stroke is 60-80%.
For `COc1ccc(CCO[C@@H]2CCCC[C@H]2N2CC[C@@H](O)C2)cc1OC` [RSD1235], the “conversion of recent-onset atrial fibrillation to sinus rhythm” value in series [1] is reported as “demonstrated its effectiveness to convert recent-onset atrial fibrillation to sinus rhythm”.
On to `CC(=O)OCC[N+](C)(C)C` [acetylcholine], for which the “time to conversion to sinus rhythm” value fell in the range of 2 to 5 s in the series with atrial flutter and 2 to 5 s in the series with atrial tachycardia (ten rats, 0.02-0.2 mg/kg via tail vein). For the same molecule, in the series with atrial tachycardia (0.02 mg/kg into right ventricular cavity), the “time of complete AV node conduction recovery following RHCA administration” value is “about 6 seconds”. The “period of cardiac arrest after termination” value in the series with atrial tachycardia (setting [4]) is listed as 1.25 s. Further, the “time until AV conduction completely recovered” value in the series on atrial tachycardia (setting [4]) is given as “about 4.5 sec”. In addition, the “time to termination of atrial tachycardia” value was 0.5 s in the series on atrial tachycardia (0.02 mg/kg into right ventricular cavity, example rat (FIG. 2b)); 0.5 to 15 s in the series with atrial tachycardia (0.02 or 0.2 mg/kg via right ventricular cavity or tail vein, respectively); 0.5 to 10.5 s in the series with atrial tachycardia (setting [6]); 2 to 15 s with atrial tachycardia (setting [7]). Further, the “duration of high degree AV block” value with atrial tachycardia (0.02 mg/kg into right ventricular cavity, following acetylcholine hydrolysis) was 2.5 s. The “lag to termination of atrial tachycardia” value in the series with atrial tachycardia (0.2 mg/kg body weight via tail vein, representative rat (FIG. 2a)) amounted to 2.6 s. In addition, the “time for sinus rhythm to reach its pre-arrhythmic value” with atrial tachycardia (0.2 mg/kg via tail vein) is listed as “about 1 minute”. Besides, in the series with atrial tachycardia (setting [5]), the “P-P interval immediately following RHCA administration” value is 650 ± 3 ms. Further, the “R-R interval immediately following RHCA administration” value in the series on atrial tachycardia (setting [5]) came to 652 ± 3 ms. Moreover, the “additional time to restore normal rhythm” value in the series on atrial tachycardia (setting [6]), with atrial tachycardia (setting [7]), in the series on atrial fibrillation [2] (setting [8]), in the series with atrial fibrillation [3] (setting [6]) and in the series with atrial fibrillation [3] (setting [7]) was 1 to 5 s each time. The “time until cardiac arrest, escape rhythm, AV block and sinus bradycardia all disappear” value with atrial tachycardia (injection into right ventricular cavity) was no more than 15 s. In addition, in the series with atrial fibrillation [2] (0.04 mg/kg into right ventricular cavity), the “time until transient sinus bradycardia (and AV block) disappeared” value was no more than 20 s. The “effect of intravenous injection on heart rhythm” value with arrhythmia induction was “caused atrioventricular conduction block and induced atrial fibrillation or flutter”. Moreover, in the series on atrial fibrillation [3] (setting [9]), the “additional time until SA and AV nodes / AV conduction recovered” value is 1.5 s. Besides, the “time to termination of atrial fibrillation” value in the series with atrial fibrillation [3] (setting [9]) was no more than 9.8 s; in the series with atrial fibrillation [3] (setting [8]), 0.5 to 15 s; in the series on atrial fibrillation [3] (setting [6]) it was 0.5 to 10.5 s; in the series with atrial fibrillation [3] (setting [7]) it was 2 to 15 s. Moreover, in the series with atrial fibrillation [3] (setting [10]), the “atrial fibrillation cases terminated” value is listed as 100%. Also, the “time within which atrial fibrillation cases are terminated” value in the series on atrial fibrillation [3] (setting [10]) was no more than 8.4 ± 1.9 s.
